Test results reported in US20250186403A1 (ARIZONA BOARD OF REGENTS ON BEHALF OF THE UNIVERSITY OF …, priority 2022, published 2025).
Each block holds one compound with its values, some of them ahead of it.

Key:
[1] = system: Cne cells; experiment: Checkerboard assay with known antifungals; format: cell-based, Cryptococcus neoformans; conditions: for MIC: Cryptococcus neoformans, read-out: MIC Alone
Description: After adding Cne cells, the plates were incubated for 48 h. Well contents were mixed by pipette, and absorbance was read at 630 nm. […] Based on the FIC, the combinatorial effects are decided as in Table 2.

[2] = biological target: Split-NanoLuc-Prp8 intein protein (Cryptococcus gattii, UniProt E6R027); experiment: Split nanoluciferase-Prp8 intein splicing assay; format: biochemical; conditions: 1 nM protein, 100 µM TCEP, 24 h; read-out: IC50, Prp8-NanoBit splicing
Split-NanoLuc-Prp8 intein protein, sequence (E6R027 entry or part of it): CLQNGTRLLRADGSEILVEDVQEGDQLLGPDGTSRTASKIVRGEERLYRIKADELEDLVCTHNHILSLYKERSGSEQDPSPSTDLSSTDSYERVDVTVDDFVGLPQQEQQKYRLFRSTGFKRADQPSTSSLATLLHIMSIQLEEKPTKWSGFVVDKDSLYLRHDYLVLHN
Description: TCEP is added to a final concentration of 100 µM and incubated for 24 h. The substrate Nano-Glo luciferase (Promega) was added, and the resulting luminescence was read. IC50 was calculated using GraphPad prism.
For the split nanoluciferase-Prp8 intein, in order to block the free cysteine residues, 5,5′-dithiobis-(2-nitrobenzoic) acid (DTNB) was added to 1:10 molar ratio and incubated at 4° C. for 5 min and dialyzed in 20 mM Tris, 150 mM NaCl, pH 9.0 and stored at −80° C. till further use.
The protein was diluted into 2 nM in assay buffer 20 mM tris, 150 mM NaCl with 0.1% BSA, 2 mM EDTA), and 80 μl was added to each well of 96 well plates (white, opaque). […] The plates were incubated at RT for 30 min, and 20 μl of TCEP was added to a final concentration of 100 µM. The plates were sealed to prevent evaporation. After incubating for 24 h at RT, 25 μl of the diluted (1:10,000 in assay buffer) diluted nanoluc substrate furimazine (Promega) was added. The emitted luminescence was quantified using the EnVision luminescence reader (Synergyll, Biotech). The IC50 was calculated using the GraphPad prism version 9.

[3] = single drug, ≥90% reduction of absorbance at 630 nm, 48 h

SMILES: Nc1nc(=O)[nH]cc1F [5-Fluorocytosine]
MIC [1, 3]: 4.13 µg/mL
MIC Comb ([1]; combination CMN + 5-Fluorocytosine, well D2): 2.06 µg/mL

SMILES: N.N.[Cl][Pt][Cl] [cisplatin]
IC50 [2]: 1410 nM

Further lines, results first:

MIC Comb ([1]; combination CMN + Amphotericin B, well E6): 0.14 µg/mL
MIC Alone [1, 3]: 0.6 µg/mL
SMILES: C[C@@H]1[C@H](O)[C@@H](C)/C=C/C=C/C=C/C=C/C=C/C=C/C=C/[C@H](O[C@@H]2O[C@H](C)[C@@H](O)[C@H](N)[C@@H]2O)C[C@@H]2O[C@](O)(C[C@@H](O)C[C@@H](O)[C@H](O)CC[C@@H](O)C[C@@H](O)CC(=O)O[C@H]1C)C[C@H](O)[C@H]2C(=O)O [Amphotericin B]

MIC [1, 3]: 0.22 µg/mL
MIC Comb ([1]; combination CMN + Itraconazole, well E4): 0.22 µg/mL
SMILES: CCC(C)n1ncn(-c2ccc(N3CCN(c4ccc(OCC5COC(Cn6cncn6)(c6ccc(Cl)cc6Cl)O5)cc4)CC3)cc2)c1=O (stereo not drawn) [Itraconazole]

MIC [1, 3]: 0.05 µg/mL
MIC Comb ([1]; combination CMN + Voriconazole, well D4): 0.05 µg/mL
SMILES: C[C@@H](c1ncncc1F)[C@](O)(Cn1cncn1)c1ccc(F)cc1F [Voriconazole]
